Source: publication PMC7894401 (CPT: Pharmacometrics & Systems Pharmacology, 2020)
Read-outs that look alike come from different tables or passages of the source.

Key:
[1] = cited from earlier work
PBPK model = assay: PBPK model; parameters: species or system human
UGT1A9 [2] = molecular target: T1, UGT1A9 (Homo sapiens, UniProt O60656); assay: UGT1A9 contribution to metabolism; type: in vitro ADME
T1 sequence (O60656 26-530): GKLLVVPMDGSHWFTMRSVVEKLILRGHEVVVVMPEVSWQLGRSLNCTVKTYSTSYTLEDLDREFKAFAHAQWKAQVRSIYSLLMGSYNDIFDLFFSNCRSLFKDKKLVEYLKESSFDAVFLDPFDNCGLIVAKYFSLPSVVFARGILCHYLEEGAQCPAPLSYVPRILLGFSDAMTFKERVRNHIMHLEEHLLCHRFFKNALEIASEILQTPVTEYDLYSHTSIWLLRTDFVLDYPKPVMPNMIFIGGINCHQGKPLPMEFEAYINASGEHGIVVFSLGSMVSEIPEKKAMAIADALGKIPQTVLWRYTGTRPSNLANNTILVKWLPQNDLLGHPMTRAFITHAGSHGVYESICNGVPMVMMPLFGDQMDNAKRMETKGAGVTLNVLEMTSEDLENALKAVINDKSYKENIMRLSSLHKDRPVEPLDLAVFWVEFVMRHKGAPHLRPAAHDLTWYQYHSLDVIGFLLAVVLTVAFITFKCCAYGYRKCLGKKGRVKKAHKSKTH

UGT = details: ref 18 (ertugliflozin), 39 (dapagliflozin); cited from earlier work
CYP = assay: Overall oxidative; type: in vitro ADME; details: human, human liver microsomes (model input, not an incubation)
[3] = human ADME study, ref 12 (ertugliflozin), 23 (dapagliflozin), cited from earlier work
UGT2B4/2B7 [4] = assay: UGT2B4/2B7 contribution to metabolism; type: in vitro ADME, human
[5] = tested on: UGT2B7 (UGT2B4/2B7 contribution assigned to UGT2B7); assay: UGT2B4/2B7 contribution to metabolism; type: in vitro ADME, human; details: human
[6] = blood/plasma ratio; ref 45 (ertugliflozin), 46 (dapagliflozin); cited from earlier work
[7] = Simcyp input, cited from earlier work; for LogP: ref 42 (ertugliflozin), DrugBank 50 (dapagliflozin), DrugBank 49 (MFA)
Caco‐2 = details: ref 17 (ertugliflozin), 46 (dapagliflozin); cited from earlier work
[8] = cited from earlier work; remark: listed apart in the source
PBPK = assay: PBPK; parameters: species or system human; details: dapagliflozin with MFA
[9] = Human ADME study with 14C-labelled drug: excretion and metabolite recovery; type: in vivo; details: human ADME study (ertugliflozin ref 12, dapagliflozin ref 23)
UGT1A9 [10] = molecular target: T1, UGT1A9; assay: In vivo Ki of MFA fitted in the PBPK model to the clinical MFA–dapagliflozin DDI; details: UGT1A9 and UGT2B7, relative potencies kept
UGT2B4 = molecular target: T2, UGT2B4 (Homo sapiens, UniProt P06133); assay: Mefenamic acid inhibition of UGT2B4; type: biochemical; details: HLM, 1–100 µM
T2 sequence (P06133 24-528): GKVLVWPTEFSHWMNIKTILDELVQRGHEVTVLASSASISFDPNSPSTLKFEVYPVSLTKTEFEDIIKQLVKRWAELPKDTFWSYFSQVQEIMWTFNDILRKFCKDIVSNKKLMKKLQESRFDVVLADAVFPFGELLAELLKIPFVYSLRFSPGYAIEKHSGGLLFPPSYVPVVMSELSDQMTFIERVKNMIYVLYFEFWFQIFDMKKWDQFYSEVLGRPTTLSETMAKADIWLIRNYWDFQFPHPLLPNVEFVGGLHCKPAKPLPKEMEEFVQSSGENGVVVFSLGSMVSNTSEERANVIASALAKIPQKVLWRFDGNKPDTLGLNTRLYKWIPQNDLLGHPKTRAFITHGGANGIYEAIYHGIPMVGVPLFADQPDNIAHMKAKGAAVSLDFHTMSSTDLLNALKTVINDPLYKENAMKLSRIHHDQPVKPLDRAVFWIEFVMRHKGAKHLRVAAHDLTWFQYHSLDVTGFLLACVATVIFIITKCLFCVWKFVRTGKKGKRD

UGT2B4/2B7 [11] = details: cited from earlier work
[12] = probenecid 500-mg twice-daily dose
[13] = dapagliflozin multiple oral dose 10 mg once daily
[14] = dapagliflozin multiple oral dose 50 mg once daily
[15] = dapagliflozin single oral dose 10 mg
[16] = calculated from clinical ADME and reaction phenotyping data
[17] = dapagliflozin single oral dose 10 mg, geometric mean

## CCOc1ccc(Cc2cc([C@@H]3O[C@H](CO)[C@@H](O)[C@H](O)[C@H]3O)ccc2Cl)cc1 [Dapagliflozin, dapagliflozin]
[1]; co-administration with mefenamic acid
  Increase in dapagliflozin exposure: 51%
PBPK model; [13]
  AUC predicted/ observed ratio: 1.06
  Cmax predicted/ observed ratio: 1.03
PBPK model; [14]
  AUC predicted/ observed ratio: 1.06
  Cmax predicted/ observed ratio: 0.84
PBPK model; [15]
  AUC predicted/ observed ratio: 0.92
  Cmax predicted/ observed ratio: 0.87
UGT1A9 [2]; [16]
  fm,UGT1A9 observed: 0.79
UGT1A9 [2]; human
  microsomal CLint: 30 µL/min/mg
UGT1A9 [2]; in vitro UGT reaction phenotyping of this paper (HLM with UGT1A9 inhibitors)
  Relative contribution of UGT1A9 to UGT metabolism: 90%
UGT
  Share of systemic UGT clearance occurring in the liver: 90%
CYP
  microsomal CLint: 4 µL/min/mg
[3]; % of dose
  Renal excretion of unchanged drug: 2%
[3]
  Elimination by glucuronidation: 88%
  Elimination by oxidation (converted to oxidative metabolites): 10%
UGT2B4/2B7 [4]; [16]
  fm,UGT2B7 observed: 0.09
UGT2B4/2B7 [4]; remainder after UGT1A9 contribution
  Remaining UGT metabolism assigned to UGT2B7: 10%
[5]
  microsomal CLint: 3 µL/min/mg
[6]
  B/P ratio: 0.88
[7]
  LogP: 2.52
Caco‐2
  Caco‐2 permeability coefficient: 15.9 10^–6 cm/s
[8]; after i.v. administration, ref 15 (ertugliflozin), 38 (dapagliflozin)
  Vss: 1.19 L/kg
[8]; [13]
  Observed Cmax: 119 ng/mL
[8]; [14]
  Observed Cmax: 728 ng/mL
[8]; [17]
  Observed AUCinf: 628 ng·h/mL
  Observed Cmax: 143 ng/mL
[8]; intravenous plasma clearance, ref 15 (ertugliflozin), 38 (dapagliflozin)
  CLiv: 12.4 L/h
[8]; oral, ref 15 (ertugliflozin), 38 (dapagliflozin)
  Absolute bioavailability (F): 78%
PBPK
  AUCR predicted/observed ratio: 1.0
  CmaxR predicted/observed ratio: 1.0
[9]
  Fe observed (fraction excreted unchanged in urine): 0.02

## Cc1cccc(Nc2ccccc2C(=O)O)c1C [MFA, mefenamic acid]
PBPK model; MFA single oral dose 500 mg
  AUC predicted/ observed ratio: 0.89
  Cmax predicted/ observed ratio: 0.92
UGT1A9 [10]
  Fold adjustment of in vitro to in vivo UGT Ki values (increased potency): ~ 2.9 fold
[7]
  LogP: 5.4
[7]; ref DrugBank 49
  pKa: 3.89
UGT2B4
  Inhibition of UGT2B4 in vitro: did not inhibit
[8]; MFA single oral dose 500 mg
  Observed AUCinf: 34200 ng·h/mL
  Observed Cmax: 6900 ng/mL

## Cc1ccc([C@@H]2O[C@H](CO)[C@@H](O)[C@H](O)[C@H]2O)cc1Cc1ccc(-c2ccc(F)cc2)s1 [canagliflozin]
[1]; co-administration with probenecid
  Increase in canagliflozin exposure: 21%

## Nc1nc(CC(=O)Nc2ccc(CCNC[C@H](O)c3ccccc3)cc2)cs1 [mirabegron]
UGT2B4/2B7 [11]
  UGT2B7-mediated metabolism incorporated in PBPK model: ~ 30%

## CCCN(CCC)S(=O)(=O)c1ccc(C(=O)O)cc1 [probenecid]
[12]
  estimated unbound maximum steady-state concentration (Cmax,ss,u): 29 µM
